Reference: patent publication US20080200405A1, “Drug Resistance Reversal In Neoplastic Disease” (priority 2007, published 2008)

Tests used:
[1] = In vitro stability of OT-551 in rabbit plasma; format: in vitro ADME
Experimental: (§1) The active metabolite of OT-551 (Cyclopropanecarboxylic acid 1-hydroxy-2,2,6,6-tetramethyl-piperidin-4-yl ester) is TP-H. The objective of this analysis was to determine the in vitro half-life of OT-551 in rat, rabbit, dog, and human plasma under standardized incubation conditions.
(§2) OT-551 was incubated with pooled rat, rabbit, dog, and human plasma for various times under standardized incubation conditions. Pre-labeled tubes containing pooled plasma from rats, rabbits, dogs, and humans were pre-incubated in a shaking 37° C. water bath. A OT-551 solution was added to the tubes at a final concentration of 1000 ng/mL. Time zero samples (n=5) were immediately removed and transferred into tubes containing a stabilizer solution (DTPA, acetylcysteine and ascorbic acid), the LC/MS/MS assay internal standard and methanol. […] The tubes were vortexed, placed on ice, followed by centrifugation. One hundred-μL aliquots of the supernatant were transferred into HPLC sample vials. Additional tubes (n=5 at each time point) were incubated for 5, 10, 20, 30, 60, 120, and 240 minutes at 37° C. and thereafter processed. The amount of OT-551 and TP-H in each incubated sample was quantified using validated LC/MS/MS assays.

[2] = test system: bFGF-induced angiogenesis in the CAM model; assay: bFGF (FGF2)-stimulated CAM model; format: in vivo, chicken; settings: bFGF/FGF2 1 ug, 30 ug injected
[3] = In vitro stability of OT-551 in rat plasma; format: in vitro ADME
Experimental: as §1, §2

[4] = Single-dose 10-minute intravenous infusion toxicokinetics of OT-551; format: in vivo, Sprague-Dawley rats; settings: for Cmax of OT-551: Sprague-Dawley rats
Experimental: Blood for toxicokinetic evaluations was collected at pre-determined time points during and after the infusion. Plasma samples were analyzed for OT-551 and TP-H using validated LC/MS/MS assays. Descriptive toxicokinetic parameters were determined by standard model independent methods (Gilbaldi and Perrier, 1982) based on the plasma concentration-time data. […] The plasma concentrations were rounded to the nearest tenth of a ng/mL before the calculations. […] Nominal time points were used for all calculations. Since there was no apparent gender difference in the plasma concentrations of OT-551 and TP-H, the data for male and female rats at each sampling time point were pooled.

[5] = In vitro stability of OT-551 in dog plasma; format: in vitro ADME
Experimental: as §1, §2

[6] = test system: drug sensitive and resistant cell lines SKN-SH, Neuro2A, Saos2, HL-60; assay: Reversal of drug resistance in various cancer types (OT-551 with or without doxorubicin); format: cell-based, human, murine; settings: in combination with doxorubicin; 96 hours
Experimental: This example illustrates that OT-551 and analogs reverse drug resistance to non-anthracycline drugs in various cancer types. The effects of analogs were tested on drug sensitive and resistant (R) cell lines corresponding to various cancer types, including the human neuroblastoma cell line SKN-SH (ATCC Cat. No. HTB-1), the murine neuroblastoma cell line Neuro2A (ATCC Cat. No. CCL-131), the osteosarcoma cells Saos2 (ATCC Cat. No. HTB-85) and the leukemia cell line HL-60 (ATCC Cat. No. CCL240). The cells were treated with OT-551 with or without doxorubicin as described above. Cell viability was calculated after 96 hours of incubation with the drug combination.

CC1(C)CC(OC(=O)C2CC2)CC(C)(C)N1O.Cl [OT-551, 1-hydroxy-4-cyclopropanecarbonyloxy-2,2,6,6-tetramethylpiperidine hydrochloride]
Concentrations (ng/mL) of OT-551 in Rabbit Plasma ([1]; incubation time 0 min): 502.75 ± 74.66 ng/mL
Concentrations (ng/mL) of OT-551 in Rabbit Plasma ([1]; incubation time 5 min): 14.56 ± 3.35 ng/mL
Concentrations (ng/mL) of OT-551 in Rabbit Plasma ([1]; incubation time 10 min): 0.00 ± 0.00 ng/mL
Concentrations (ng/mL) of OT-551 in Rabbit Plasma ([1]; incubation time 20 min): 0.00 ± 0.00 ng/mL
Concentrations (ng/mL) of OT-551 in Rabbit Plasma ([1]; incubation time 30 min): 0.00 ± 0.00 ng/mL
Concentrations (ng/mL) of OT-551 in Rabbit Plasma ([1]; incubation time 60 min): 0.00 ± 0.00 ng/mL
Concentrations (ng/mL) of OT-551 in Rabbit Plasma ([1]; incubation time 120 min): 0.00 ± 0.00 ng/mL
Concentrations (ng/mL) of OT-551 in Rabbit Plasma ([1]; incubation time 240 min): 0.00 ± 0.00 ng/mL
inhibition in vivo at 0.03 mg ([2]; Gallus gallus, read-out: % Inhibition ± SEM): 74 ± 4%
Branch pts ± SEM [2]: 87 ± 3
Concentrations (ng/mL) of OT-551 in Rat Plasma ([3]; incubation time 0 min): 806.50 ± 86.77 ng/mL
Concentrations (ng/mL) of OT-551 in Rat Plasma ([3]; incubation time 5 min): 770.32 ± 20.66 ng/mL
Concentrations (ng/mL) of OT-551 in Rat Plasma ([3]; incubation time 10 min): 745.77 ± 15.50 ng/mL
Concentrations (ng/mL) of OT-551 in Rat Plasma ([3]; incubation time 20 min): 682.88 ± 16.94 ng/mL
Concentrations (ng/mL) of OT-551 in Rat Plasma ([3]; incubation time 30 min): 613.79 ± 25.84 ng/mL
Concentrations (ng/mL) of OT-551 in Rat Plasma ([3]; incubation time 60 min): 480.48 ± 10.69 ng/mL
Concentrations (ng/mL) of OT-551 in Rat Plasma ([3]; incubation time 120 min): 277.94 ± 5.55 ng/mL
Concentrations (ng/mL) of OT-551 in Rat Plasma ([3]; incubation time 240 min): 80.70 ± 2.02 ng/mL
peak plasma concentration of OT-551 at the end of the infusion ([4]; 10 mg/kg OT-551, 10-minute i.v. infusion): 980.5 ng/mL
plasma level of OT-551 one hour after termination of the infusion ([4]; 10 mg/kg, assay limit <50 ng/mL): not quantifiable
peak plasma concentration of OT-551 at the end of the infusion ([4]; 30 mg/kg OT-551, 10-minute i.v. infusion): 3487.1 ng/mL
peak plasma concentration of OT-551 at the end of the infusion ([4]; 100 mg/kg OT-551, 10-minute i.v. infusion): 29020.0 ng/mL
peak plasma concentration of OT-551 at the end of the infusion ([4]; 200 mg/kg OT-551, 10-minute i.v. infusion): 89740.8 ng/mL
plasma levels of OT-551 four hours after termination of the infusion ([4]; 30 to 200 mg/kg, assay limit <50 ng/mL): not quantifiable
Cmax of OT-551 ([4]; 10-minute iv infusion of OT-551 10 mg/kg): 980.5 ng/mL
Cmax of OT-551 ([4]; 10-minute iv infusion of OT-551 30 mg/kg): 3487.1 ng/mL
Cmax of OT-551 ([4]; 10-minute iv infusion of OT-551 100 mg/kg): 29020.0 ng/mL
Cmax of OT-551 ([4]; 10-minute iv infusion of OT-551 200 mg/kg): 89740.8 ng/mL
clearance of OT-551 in rats ([4]; rat, in vivo): very rapid
Concentrations (ng/mL) of OT-551 in Dog Plasma ([5]; incubation time 0 min): 771.12 ± 21.68 ng/mL
Concentrations (ng/mL) of OT-551 in Dog Plasma ([5]; incubation time 5 min): 804.93 ± 17.45 ng/mL
Concentrations (ng/mL) of OT-551 in Dog Plasma ([5]; incubation time 10 min): 811.14 ± 21.06 ng/mL
Concentrations (ng/mL) of OT-551 in Dog Plasma ([5]; incubation time 20 min): 809.01 ± 18.58 ng/mL
Concentrations (ng/mL) of OT-551 in Dog Plasma ([5]; incubation time 30 min): 789.53 ± 13.73 ng/mL
Concentrations (ng/mL) of OT-551 in Dog Plasma ([5]; incubation time 60 min): 717.22 ± 25.73 ng/mL
Concentrations (ng/mL) of OT-551 in Dog Plasma ([5]; incubation time 120 min): 608.14 ± 25.96 ng/mL
Concentrations (ng/mL) of OT-551 in Dog Plasma ([5]; incubation time 240 min): 428.20 ± 12.03 ng/mL
effect on doxorubicin toxicity [6]: able to enhance doxorubicin toxicity in all the drug resistant cell lines tested
